Values quoted from earlier work as cited in patent publication US20040063806A1, “Antimicrobial polyalphaolefin composition” (priority 2000, published 2004).
Where two headings read alike, the source gives them in different places.

Assays:
[1] = tested on: Streptococcus heamolyticus A; settings: origin A, medium BHI-A
Actinomyces israelii = Actinomyces israelii NCTC 8047, medium NA
[2] = tested on: Pseudomonas fluorescencens; settings: Pseudomonas fluorescencens NCTC 4755, medium NA
Clostridium difficile = Clostridium difficile ATCC 9684, medium BHI-A
Listeria monocytogenes = Listeria monocytogenes ATCC 15313, medium BHI-A
[3] = tested on: Mycobacterium tuberculosis; settings: origin A, medium YA
Salmonella paratyphi A = Salmonella paratyphi A NCTC 5322, medium NA
[4] = tested on: Trichophyton mentsgrophytes; settings: Trichophyton mentsgrophytes ATCC 9533, medium SMA
Haemophilius influenca = Haemophilius influenca ATCC 33391, medium B-A
Shigella sonnei = Shigella sonnei NCTC 7240, medium NA
Streptococcus coelicolor = settings: origin A, medium BHI-A
Mycobacterium smegmatis = Mycobacterium smegmatis NCTC 8152, medium BHI-A
Enterobacter sakazakii = Enterobacter sakazakii NCTC 8155, medium NA
Staphylococcus albus = Staphylococcus albus NCTC 7292, medium NA
Actinomyces naeslundii = settings: origin A, medium NA
Enterococcus arabinosus = Enterococcus arabinosus ATCC 8014, medium MACA
Bacteroides fragilis = Bacteroides fragilis ATCC 23745, medium M-H
[5] = tested on: Bacillus cereus var. mycoides; settings: origin A, medium NA
[6] = tested on: Corynebacterium minutissimum; settings: Corynebacterium minutissimum ATCC 23348, medium BHI-A
Trichophyton rubrum = settings: origin A, medium SMA
Bacillus megatherium = settings: origin A, medium NA
Klebsiella oxytoca = Klebsiella oxytoca ATCC 43165, medium M-H
Klebsiella edwardsii = Klebsiella edwardsii NCTC 7242, medium NA
Corynebacterium acnes = settings: Corynebacterium acnes* ATCC 6919, medium BHI-A
Acinetobacter lwoffii = Acinetobacter lwoffii ATCC 15309, medium M-H
Bacillus cereus = settings: origin A, medium NA
Epidermophyton floccosum = Epidermophyton floccosum ATCC 10227, medium SMA
Sporosarcina urea = Sporosarcina urea ATCC 6473, medium BHI-A
Vibrio cholerae = settings: origin A, medium NA
[7] = tested on: Corynebacterium diphtherias; settings: Corynebacterium diphtherias NCTC 3984, medium BHI-A
Moraxella lwolffii = settings: origin A, medium NA
Trichophyton cutaneum = settings: origin A, medium SMA
Brucella abortus = Brucella abortus NCTC 8226, medium BR.A.A.
Candida parapsylosis = settings: origin A, medium SMA
Pasteurella septica = Pasteurella septica NCTC 948, medium NA

In the case of `Oc1cc(Cl)ccc1Oc1ccc(Cl)cc1Cl` [IRGAGUARD B 1000, 2,4,4′-trichloro-2′-hydroxydiphenyl ether], the Microbiostatic effect [1] is listed as 3.0 ppm, the Microbiostatic effect (Candida tropicalis; Candida tropicalis DSM 1346, medium M-H) is listed as 10 ppm and the Microbiostatic effect (Candida tropicalis; Candida tropicalis, origin A, medium SMA) is listed as 10 ppm. For the same compound, the Microbiostatic effect (Actinomyces israelii) was 1.0 ppm, the Microbiostatic effect [2] was greater than 100 ppm and the Microbiostatic effect (Clostridium difficile) was 5.0 ppm. For the same compound, the Microbiostatic effect (Listeria monocytogenes) was 1.0 ppm, the Microbiostatic effect [3] was 100.0 ppm and the Microbiostatic effect (Salmonella paratyphi A) was 0.3 ppm. The Microbiostatic effect [4] was 1 ppm, the Microbiostatic effect (Haemophilius influenca) was 2.0 ppm and the Microbiostatic effect (Shigella sonnei) was 0.1 ppm. The Microbiostatic effect (Staphylococcus aureus; Staphylococcus aureus ATCC 6538, medium NA) was 0.01 ppm, the Microbiostatic effect (Staphylococcus aureus; Staphylococcus aureus ATCC 9144, medium M-H) was 0.05 ppm and the Microbiostatic effect (Staphylococcus aureus; Staphylococcus aureus ATCC 13709, medium NA) was 0.01 ppm. For the same compound, the Microbiostatic effect (Staphylococcus aureus; Staphylococcus aureus ATCC 29213, medium M-H) was less than 0.125 ppm, the Microbiostatic effect (Staphylococcus aureus; Staphylococcus aureus NCTC 6571, medium NA) was 0.03 ppm and the Microbiostatic effect (Staphylococcus aureus; Staphylococcus aureus NCTC 6966, medium NA) was 0.1 ppm. The Microbiostatic effect (Staphylococcus aureus; Staphylococcus aureus NCTC 10443, medium M-H, Methicillin resistant) was 0.01 ppm, the Microbiostatic effect (Staphylococcus aureus; Staphylococcus aureus NCTC 10703, medium M-H, Methicillin resistant) was 0.01 ppm and the Microbiostatic effect (Staphylococcus aureus; Staphylococcus aureus NCTC 11150, medium M-H, Methicillin resistant) was 0.02 ppm. For the same compound, the Microbiostatic effect (Staphylococcus aureus; Staphylococcus aureus NCTC 11940, medium M-H, Methicillin resistant) was 0.01 ppm, the Microbiostatic effect (Staphylococcus aureus; Staphylococcus aureus NCTC 12232, medium M-H, Methicillin resistant) was 0.01 ppm and the Microbiostatic effect (Staphylococcus aureus; Staphylococcus aureus NCTC 12493, medium M-H, Methicillin resistant) was 0.01 ppm. For the same compound, the Microbiostatic effect (Staphylococcus aureus; Staphylococcus aureus NCTC 12497, medium M-H, Methicillin resistant) was 0.01 ppm, the Microbiostatic effect (Streptococcus coelicolor) was 1.0 ppm and the Microbiostatic effect (Mycobacterium smegmatis) was 1.0 ppm. For the same compound, the Microbiostatic effect (Enterobacter sakazakii) was 0.3 ppm, the Microbiostatic effect (Staphylococcus albus) was 0.1 ppm and the Microbiostatic effect (Actinomyces naeslundii) was 1.0 ppm. For the same compound, the Microbiostatic effect (Enterococcus arabinosus) was 33.0 ppm, the Microbiostatic effect (Bacteroides fragilis) was 2.0 ppm and the Microbiostatic effect [5] was 3.0 ppm. The Microbiostatic effect (Salmonella paratyphi B; Salmonella paratyphi B NCTC 3176, medium NA) was 0.3 ppm, the Microbiostatic effect (Salmonella paratyphi B; Salmonella paratyphi B NCTC 5704, medium NA) was 0.1 ppm and the Microbiostatic effect [6] was 3.0 ppm. The Microbiostatic effect (Trichophyton rubrum) was 10 ppm, the Microbiostatic effect (Bacillus megatherium) was 3.0 ppm and the Microbiostatic effect (Klebsiella oxytoca) was 1.0 ppm. The Microbiostatic effect (Klebsiella edwardsii) was 0.3 ppm, the Microbiostatic effect (Corynebacterium acnes) was 3.0 ppm and the Microbiostatic effect (Acinetobacter lwoffii) was 0.125 ppm. For the same compound, the Microbiostatic effect (Bacillus cereus) was 3.0 ppm, the Microbiostatic effect (Epidermophyton floccosum) was 1-10 ppm and the Microbiostatic effect (Sporosarcina urea) was 0.1 ppm. The Microbiostatic effect (Vibrio cholerae) was 10.0 ppm, the Microbiostatic effect [7] was 3.0 ppm and the Microbiostatic effect (Enterococcus faecalis; Enterococcus faecalis ATCC 6055, medium M-H) was 5.0 ppm. For the same compound, the Microbiostatic effect (Enterococcus faecalis; Enterococcus faecalis ATCC 29212, medium M-H) was 4.0 ppm, the Microbiostatic effect (Enterococcus faecalis; Enterococcus faecalis NCTC 12201, medium M-H, Varicomycin resistant) was 5.0 ppm and the Microbiostatic effect (Enterococcus faecalis; Enterococcus faecalis NCTC 12203, medium M-H, Varicomycin resistant) was 5.0 ppm. The Microbiostatic effect (Moraxella lwolffii) was 0.1 ppm, the Microbiostatic effect (Trichophyton cutaneum) was 10 ppm and the Microbiostatic effect (Brucella abortus) was 0.1 ppm. The Microbiostatic effect (Candida parapsylosis) was 30 ppm and the Microbiostatic effect (Pasteurella septica) was 0.1 ppm.
